These results are taken from BindingDB's records for doi:10.1016/j.bioorg.2014.07.012 (Kurukshetra University, 2014).

Molecules are shown by their SMILES.

One assay concerns the target Cathepsin B (Capra hircus, UniProt H9B8T9). Briefly: Enzymatic activity assay. As to conditions: pH 6; 37 °C. The procedure:
(§1) Enzyme was equilibrated in 0.1 M phosphate buffer, pH 6.0 at 37 °C. All compounds were prepared in DMSO. Various concentrations of compounds were added in the reaction mixture separately. The reactions were incubated for 30 min and the activity was estimated by the usual enzyme assay at pH 6.0 using a-N-benzoyl-D,L-arginine-2-naphthylamide (BANA) as substrate.

The target of a further assay is T1, Cathepsin H (Capra hircus, UniProt A0A060INS8).
T1 sequence (A0A060INS8 whole entry): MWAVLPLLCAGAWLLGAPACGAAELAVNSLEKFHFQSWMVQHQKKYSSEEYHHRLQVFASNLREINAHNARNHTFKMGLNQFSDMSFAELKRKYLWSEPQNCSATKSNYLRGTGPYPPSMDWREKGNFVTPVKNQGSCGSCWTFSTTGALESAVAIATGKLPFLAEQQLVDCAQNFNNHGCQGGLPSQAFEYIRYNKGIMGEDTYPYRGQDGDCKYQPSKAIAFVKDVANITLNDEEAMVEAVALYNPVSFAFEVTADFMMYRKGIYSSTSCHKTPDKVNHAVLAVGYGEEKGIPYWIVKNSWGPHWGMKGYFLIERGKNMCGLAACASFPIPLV
Briefly: Enzymatic activity assay. The note with it: pH 6; 37 °C. The procedure: as §1

Consider `O=CN1N=C(c2ccccc2)CC1c1cccc(Cl)c1` (stereo not given) [N-formyl-5-(-3'-chlorophenyl)-3-phenylpyrazoline (1c)], for which the figures for the Ki on Cathepsin B and at Cathepsin H were 14.6 nM and 130 nM, respectively.

For `O=C(c1ccccc1)N1N=C(c2ccccc2)CC1c1cccc(Cl)c1` (stereo not given) [N-benzoyl-5-(-3'-chlorophenyl)-3-phenylpyrazoline (2c)], the Ki at Cathepsin B amounted to 677 nM; at Cathepsin H, 1810 nM.

As to `COc1ccc(C2CC(c3ccccc3)=NN2C=O)cc1` (stereo not given) [N-formyl-5-(-4'-methoxyphenyl)-3-phenylpyrazoline (1g)], the values for the Ki on Cathepsin B and on Cathepsin H were 44.8 nM and 221 nM, respectively.

Regarding `O=C(c1ccccc1)N1N=C(c2ccccc2)CC1c1ccccc1` (stereo not given) [N-benzoyl-3,5-diphenylpyrazoline (2a)], the Ki was determined as 1150 nM at Cathepsin B and 3200 nM on Cathepsin H.

As for `COc1ccc(C2CC(c3ccccc3)=NN2C(=O)c2ccccc2)cc1` (stereo not given) [N-benzoyl-5-(-4'-methoxyphenyl)-3-phenylpyrazoline (2g)], the Ki turned out to be 1280 nM on Cathepsin B and 4100 nM at Cathepsin H.

As to `COc1cccc(C2CC(c3ccccc3)=NN2C(=O)c2ccccc2)c1` (stereo not given) [N-benzoyl-5-(-3'-methoxyphenyl)-3-phenylpyrazoline (2f)], the Ki is 1590 nM at Cathepsin B and 5030 nM at Cathepsin H.

`COc1ccccc1C1CC(c2ccccc2)=NN1C(=O)c1ccccc1` (stereo not given) [N-benzoyl-5-(-2'-methoxyphenyl)-3-phenylpyrazoline (2e)]: the Ki on Cathepsin B amounted to 4900 nM; at Cathepsin H, 9650 nM.

Consider `O=C(c1ccccc1)N1N=C(c2ccccc2)CC1c1ccccc1[N+](=O)[O-]` (stereo not given) [N-benzoyl-5-(-2'-nitrophenyl)-3-phenylpyrazoline (2h)], for which the results for the Ki at Cathepsin B and at Cathepsin H were 572 nM and 1440 nM, respectively.

With `O=CN1N=C(c2ccccc2)CC1c1ccc([N+](=O)[O-])cc1` (stereo not given) [N-formyl-5-(-4'-nitrophenyl)-3-phenylpyrazoline (1j)], the Ki is 11.3 nM at Cathepsin B and 58 nM on Cathepsin H.

Regarding `O=CN1N=C(c2ccccc2)CC1c1cccc([N+](=O)[O-])c1` (stereo not given) [N-formyl-5-(-3'-nitrophenyl)-3-phenylpyrazoline (1i)], the Ki on Cathepsin B turned out to be 1.1 nM; at Cathepsin H, 51.9 nM.

`COc1cccc(C2CC(c3ccccc3)=NN2C=O)c1` (stereo not given) [N-formyl-5-(-3'-methoxyphenyl)-3-phenylpyrazoline (1f)]: the Ki at Cathepsin B turned out to be 45.5 nM; at Cathepsin H, 272 nM.

With `O=CN1N=C(c2ccccc2)CC1c1ccc(Cl)cc1` (stereo not given) [N-formyl-5-(-4'-chlorophenyl)-3-phenylpyrazoline (1d)], the results for the Ki at Cathepsin B and at Cathepsin H were 21.1 nM and 137 nM, respectively.

Consider `O=C(c1ccccc1)N1N=C(c2ccccc2)CC1c1cccc([N+](=O)[O-])c1` (stereo not given) [N-benzoyl-5-(-3'-nitrophenyl)-3-phenylpyrazoline (2i)], for which the Ki at Cathepsin B stood at 195 nM; on Cathepsin H, 980 nM.

As to `O=CN1N=C(c2ccccc2)CC1c1ccccc1[N+](=O)[O-]` (stereo not given) [N-formyl-5-(-2'-nitrophenyl)-3-phenylpyrazoline (1h)], the Ki on Cathepsin B is 14.1 nM; at Cathepsin H, 96.3 nM.

Regarding `O=C(c1ccccc1)N1N=C(c2ccccc2)CC1c1ccccc1Cl` (stereo not given) [N-benzoyl-5-(-2'-chlorophenyl)-3-phenylpyrazoline (2b)], the Ki at Cathepsin B was 775 nM; at Cathepsin H, 1890 nM.

Regarding `COc1ccccc1C1CC(c2ccccc2)=NN1C=O` (stereo not given) [N-formyl-5-(-2'-methoxyphenyl)-3-phenylpyrazoline (1e)], the results for the Ki at Cathepsin B and on Cathepsin H were 66.8 nM and 387 nM, respectively.

As to `O=C(c1ccccc1)N1N=C(c2ccccc2)CC1c1ccc(Cl)cc1` (stereo not given) [N-benzoyl-5-(-4'-chlorophenyl)-3-phenylpyrazoline (2d)], the Ki on Cathepsin B amounted to 925 nM; on Cathepsin H it was 3010 nM.

As to `O=C(c1ccccc1)N1N=C(c2ccccc2)CC1c1ccc([N+](=O)[O-])cc1` (stereo not given) [N-benzoyl-5-(-4'-nitrophenyl)-3-phenylpyrazoline (2j)], the inhibitory constant (Ki) on Cathepsin B is 287 nM; on Cathepsin H, 1270 nM.

Regarding `O=CN1N=C(c2ccccc2)CC1c1ccccc1Cl` (stereo not given) [N-formyl-5-(-2'-chlorophenyl)-3-phenylpyrazoline (1b)], the Ki at Cathepsin B is 18 nM; at Cathepsin H it was 135 nM.

Turning to `O=CN1N=C(c2ccccc2)CC1c1ccccc1` (stereo not given) [N-formyl-3,5-diphenylpyrazoline (1a)], the Ki on Cathepsin B was 22.7 nM; on Cathepsin H, 174 nM.

Broadly, the Ki is the equilibrium dissociation constant of an inhibitor or competing ligand from its target. High values mean lower affinity, low ones higher affinity.
